# Reference: US20170190671A1, “BIS(ARYL)CATECHOL DERIVATIVES AS HERBICIDES” (E I DU PONT DE NEMOURS AND COMPANY, priority 2014, published 2017)
# Experiments:
# Test in all cases: Test E preemergence
# Type in all cases: in vivo
# Conditions in all cases: scale 0 to 100
# [1] = system: ragweed (common ragweed, Ambrosia elatior)
# Source text: (§1) Seeds of plant species selected from corn (Zea mays), soybean (Glycine max), velvetleaf (Abutilon theophrasti), cocklebur (common cocklebur, Xanthium strumarium), lambsquarters (Chenopodium album), wild poinsettia (Euphorbia heterophylla), palmer pigweed (Amaranthus palmeri), waterhemp (common waterhemp, Amaranthus rudis), surinam grass (Brachiaria decumbens), large (Lg) crabgrass (Digitaria sanguinalis), Brazilian crabgrass (Digitaria horizontalis), fall panicum (Panicum dichotomiflorum), giant foxtail (Setaria faberii), green foxtail (Setaria viridis), goosegrass (Eleusine indica), johnsongrass (Sorghum halepense), ragweed (common ragweed, Ambrosia elatior), barnyardgrass (Echinochloa crus-galli), sandbur (southern sandbur, Cenchrus echinatus), arrowleaf sida (Sida rhombifolia), Italian ryegrass (Lolium multiflorum), dayflower (Virginia (VA) dayflower, Commelina virginica), field bindweed (Convolvulus arvensis), morningglory (Ipomoea coccinea), nightshade (eastern black nightshade, Solanum ptycanthum), kochia (Kochia scoparia), yellow nutsedge (Cyperus esculentus), horseweed (Conyza canadensis), and hairy beggarticks (Bidens pilosa), were planted into a silt loam soil and treated preemergence with test chemicals formulated in a non-phytotoxic solvent mixture which included a surfactant.
# (§2) At the same time, plants from these crop and weed species and also waterhemp_RES1, (ALS & Triazine resistant common waterhemp, Amaranthus rudis), and waterhemp_RES2, (ALS & HPPD resistant common waterhemp, Amaranthus rudis) were planted in pots containing Redi-Earth® planting medium (Scotts Company, 14111 Scottslawn Road, Marysville, Ohio 43041) comprising spaghnum peat moss, vermiculite, wetting agent and starter nutrients were treated with postemergence applications of test chemicals formulated in the same manner. Plants ranged in height from 2 to 18 cm for postemergence treatments (1- to 4-leaf stage). Treated plants and controls were maintained in a greenhouse for 14 to 21 days, after which time all species were compared to controls and visually evaluated. Plant response ratings, summarized in Table E, are based on a scale of 0 to 100 where 0 is no effect and 100 is complete control. A dash (-) response means no test result.
# [2] = system: goosegrass (Eleusine indica)
# Source text: as §1, §2
# [3] = system: giant foxtail (Setaria faberii)
# Source text: as §1, §2
# [4] = system: Brazilian crabgrass (Digitaria horizontalis)
# Source text: as §1, §2
# [5] = system: barnyardgrass (Echinochloa crus-galli)
# Source text: as §1, §2
# [6] = system: green foxtail (Setaria viridis)
# Source text: as §1, §2
# soybean (Glycine max) = system: soybean (Glycine max)
# Source text: as §1, §2
# kochia (Kochia scoparia) = system: kochia (Kochia scoparia)
# Source text: as §1, §2
# [7] = system: fall panicum (Panicum dichotomiflorum)
# Source text: as §1, §2
# [8] = system: waterhemp (common waterhemp, Amaranthus rudis)
# Source text: as §1, §2
# [9] = system: sandbur (southern sandbur, Cenchrus echinatus)
# Source text: as §1, §2
# [10] = system: arrowleaf sida (Sida rhombifolia)
# Source text: as §1, §2
# [11] = system: Italian ryegrass (Lolium multiflorum)
# Source text: as §1, §2
# [12] = system: palmer pigweed (Amaranthus palmeri)
# Source text: as §1, §2
# [13] = system: nightshade (eastern black nightshade, Solanum ptycanthum)
# Source text: as §1, §2
# [14] = system: Surinam grass (Brachiaria decumbens)
# Source text: as §1, §2
# [15] = system: velvetleaf (Abutilon theophrasti)
# Source text: as §1, §2
# [16] = system: hairy beggarticks (Bidens pilosa)
# Source text: as §1, §2
# [17] = system: yellow nutsedge (Cyperus esculentus)
# Source text: as §1, §2
# [18] = system: large (Lg) crabgrass (Digitaria sanguinalis)
# Source text: as §1, §2
# [19] = system: lambsquarters (Chenopodium album)
# Source text: as §1, §2
smiles,measurement,setting,value
"Fc1cccc(Oc2ncc(C(F)(F)F)cn2)c1Oc1ncc(Cl)cn1 [Compound 42, 5-chloro-2-[2-fluoro-6-[[5-(trifluoromethyl)-2-pyrimidinyl]oxy]phenoxy]pyrimidine]","Plant response rating, Ragweed",[1]; 16 g ai/ha,0
same,"Plant response rating, Ragweed",[1]; 31 g ai/ha,20
same,"Plant response rating, Ragweed",[1]; 62 g ai/ha,65
same,"Plant response rating, Ragweed",[1]; 125 g ai/ha,100
same,"Plant response rating, Goosegrass",[2]; 16 g ai/ha,0
same,"Plant response rating, Goosegrass",[2]; 31 g ai/ha,50
same,"Plant response rating, Goosegrass",[2]; 62 g ai/ha,90
same,"Plant response rating, Goosegrass",[2]; 125 g ai/ha,98
same,"Plant response rating, Foxtail, Giant",[3]; 16 g ai/ha,50
same,"Plant response rating, Foxtail, Giant",[3]; 31 g ai/ha,80
same,"Plant response rating, Foxtail, Giant",[3]; 62 g ai/ha,100
same,"Plant response rating, Foxtail, Giant",[3]; 125 g ai/ha,100
same,"Plant response rating, Crabgrass, Brazil",[4]; 16 g ai/ha,35
same,"Plant response rating, Crabgrass, Brazil",[4]; 31 g ai/ha,95
same,"Plant response rating, Crabgrass, Brazil",[4]; 62 g ai/ha,100
same,"Plant response rating, Crabgrass, Brazil",[4]; 125 g ai/ha,100
same,"Plant response rating, Barnyardgrass",[5]; 16 g ai/ha,5
same,"Plant response rating, Barnyardgrass",[5]; 31 g ai/ha,50
same,"Plant response rating, Barnyardgrass",[5]; 62 g ai/ha,70
same,"Plant response rating, Barnyardgrass",[5]; 125 g ai/ha,100
same,"Plant response rating, Foxtail, Green",[6]; 16 g ai/ha,35
same,"Plant response rating, Foxtail, Green",[6]; 31 g ai/ha,80
same,"Plant response rating, Foxtail, Green",[6]; 62 g ai/ha,95
same,"Plant response rating, Foxtail, Green",[6]; 125 g ai/ha,100
same,"Plant response rating, Soybean",soybean (Glycine max); 16 g ai/ha,0
same,"Plant response rating, Soybean",soybean (Glycine max); 31 g ai/ha,35
same,"Plant response rating, Soybean",soybean (Glycine max); 62 g ai/ha,35
same,"Plant response rating, Soybean",soybean (Glycine max); 125 g ai/ha,100
same,"Plant response rating, Kochia",kochia (Kochia scoparia); 16 g ai/ha,80
same,"Plant response rating, Kochia",kochia (Kochia scoparia); 31 g ai/ha,90
same,"Plant response rating, Kochia",kochia (Kochia scoparia); 62 g ai/ha,100
same,"Plant response rating, Kochia",kochia (Kochia scoparia); 125 g ai/ha,100
same,"Plant response rating, Panicum, Fall",[7]; 16 g ai/ha,0
same,"Plant response rating, Panicum, Fall",[7]; 31 g ai/ha,98
same,"Plant response rating, Panicum, Fall",[7]; 62 g ai/ha,100
same,"Plant response rating, Panicum, Fall",[7]; 125 g ai/ha,100
same,"Plant response rating, Waterhemp",[8]; 16 g ai/ha,98
same,"Plant response rating, Waterhemp",[8]; 31 g ai/ha,100
same,"Plant response rating, Waterhemp",[8]; 62 g ai/ha,100
same,"Plant response rating, Waterhemp",[8]; 125 g ai/ha,100
same,"Plant response rating, Sandbur",[9]; 16 g ai/ha,0
same,"Plant response rating, Sandbur",[9]; 31 g ai/ha,5
same,"Plant response rating, Sandbur",[9]; 62 g ai/ha,35
same,"Plant response rating, Sandbur",[9]; 125 g ai/ha,65
same,"Plant response rating, Arrowleaf Sida",[10]; 16 g ai/ha,100
same,"Plant response rating, Arrowleaf Sida",[10]; 31 g ai/ha,98
same,"Plant response rating, Arrowleaf Sida",[10]; 62 g ai/ha,100
same,"Plant response rating, Arrowleaf Sida",[10]; 125 g ai/ha,100
same,"Plant response rating, Ryegrass, Italian",[11]; 16 g ai/ha,20
same,"Plant response rating, Ryegrass, Italian",[11]; 31 g ai/ha,40
same,"Plant response rating, Ryegrass, Italian",[11]; 62 g ai/ha,80
same,"Plant response rating, Ryegrass, Italian",[11]; 125 g ai/ha,98
same,"Plant response rating, Pigweed, Palmer",[12]; 16 g ai/ha,60
same,"Plant response rating, Pigweed, Palmer",[12]; 31 g ai/ha,70
same,"Plant response rating, Pigweed, Palmer",[12]; 62 g ai/ha,80
same,"Plant response rating, Pigweed, Palmer",[12]; 125 g ai/ha,100
same,"Plant response rating, Nightshade",[13]; 16 g ai/ha,80
same,"Plant response rating, Nightshade",[13]; 31 g ai/ha,70
same,"Plant response rating, Nightshade",[13]; 62 g ai/ha,98
same,"Plant response rating, Nightshade",[13]; 125 g ai/ha,98
same,"Plant response rating, Surinam Grass",[14]; 16 g ai/ha,0
same,"Plant response rating, Surinam Grass",[14]; 31 g ai/ha,0
same,"Plant response rating, Surinam Grass",[14]; 62 g ai/ha,40
same,"Plant response rating, Surinam Grass",[14]; 125 g ai/ha,85
same,"Plant response rating, Velvetleaf",[15]; 16 g ai/ha,75
same,"Plant response rating, Velvetleaf",[15]; 31 g ai/ha,80
same,"Plant response rating, Velvetleaf",[15]; 62 g ai/ha,100
same,"Plant response rating, Velvetleaf",[15]; 125 g ai/ha,100
same,"Plant response rating, Beggarticks",[16]; 16 g ai/ha,0
same,"Plant response rating, Beggarticks",[16]; 31 g ai/ha,0
same,"Plant response rating, Beggarticks",[16]; 62 g ai/ha,0
same,"Plant response rating, Beggarticks",[16]; 125 g ai/ha,0
same,"Plant response rating, Nutsedge, Yellow",[17]; 16 g ai/ha,0
same,"Plant response rating, Nutsedge, Yellow",[17]; 31 g ai/ha,0
same,"Plant response rating, Nutsedge, Yellow",[17]; 62 g ai/ha,35
same,"Plant response rating, Nutsedge, Yellow",[17]; 125 g ai/ha,40
same,"Plant response rating, Crabgrass, Large",[18]; 16 g ai/ha,80
same,"Plant response rating, Crabgrass, Large",[18]; 31 g ai/ha,98
same,"Plant response rating, Crabgrass, Large",[18]; 62 g ai/ha,100
same,"Plant response rating, Crabgrass, Large",[18]; 125 g ai/ha,100
same,"Plant response rating, Lambsquarters",[19]; 16 g ai/ha,100
same,"Plant response rating, Lambsquarters",[19]; 31 g ai/ha,100
same,"Plant response rating, Lambsquarters",[19]; 62 g ai/ha,100
same,"Plant response rating, Lambsquarters",[19]; 125 g ai/ha,100
